Laboratory results taken from a melting point compilation (Tetko et al.; mined from patent text by program, amines drawn as free bases though some values may be those of a salt).

melting point	Structure (SMILES)
159 to 161 °C	CCCC(=O)c1cnc2c(OC)cccc2c1Nc1ccccc1OC
220 to 224 °C	O=C(CC(=O)C(F)(F)F)c1ccc(OCc2ccccc2)cc1
46 to 47 °C	Cc1ccn(-c2ccc(Cl)c(Cl)c2)n1
68 to 70 °C	CCCn1nnn(-c2cc(OC(C)C)c(CBr)cc2Cl)c1=O
138 to 139 °C	[O-][N+]1=C(c2ccccc2F)c2cc(Cl)ccc2C=CC1
75 to 76 °C	CCCCCCCCCCOc1ccc(-c2ccc(CCCCC(C)OC(C)=O)cc2)cc1 (centres undefined)
253 °C	Cc1nc(N2CCCC2)nc2c1c(=O)c(C(=O)O)cn2C1CC1
98 to 100 °C	C=CC(=O)OC(COc1ccc(C(=O)c2ccccc2)c(O)c1)COc1ccc(C(=O)c2ccccc2)c(O)c1
163 °C	CCn1cc(N(C)S(=O)(=O)c2cccs2)c2[nH]c(C3=NCCS3)cc21
91 to 96 °C	CCOc1ccn2nc(S(=O)(=O)Cl)nc2n1
115 to 117 °C	CC(=O)OCC1OC(n2cc(C3=C(c4c[nH]c5ncccc45)C(=O)N(COCc4ccccc4)C3=O)c3ccccc32)C(OC(C)=O)C(OC(C)=O)C1OC(C)=O (centres undefined)
255 to 258 °C	Cn1cc(C(=O)O)c(=O)c2cc(F)c(F)c(F)c21
89 to 91 °C	C=Cc1ccc2c(c1)CC(NC(=O)OC(C)(C)C)CC2 (centres undefined)
187 °C	Cc1c(Cl)ccc2c1[nH]c1c(CO)cccc12
201 to 202 °C	O=[N+]([O-])c1cc(Cl)c2cccnc2c1O
80 to 90 °C	Cc1c(-c2ccc(O)cc2)n(Cc2ccc(OCCN3CCC(O)CC3)cc2)c2ccc(O)cc12
221 to 223 °C	COc1ccc(S(=O)(=O)NC(=O)c2ccc(C(=O)NCCO)nc2)cc1
121 to 123 °C	CCOC(=O)C1CCCCN1C(=O)Cl (centres undefined)
241 to 243 °C	COc1ccc2c(c1)c1c3c(c(-c4ccccc4)cc1n2CCCO)C(=O)NC3=O
184 to 185 °C	O=C(O)CCC(=O)c1ccc(-c2ccc(Cl)cc2)cc1
179 to 180 °C	COCCNC(=O)c1ccc(C)c(-n2c(C)cc(OCc3ccccc3CNC(=O)Nc3cc(C(C)(C)C)nn3-c3ccc(O)c(Cl)c3)c(Cl)c2=O)c1
134 to 137 °C	COC(=O)c1cc2ccoc2nc1C1=NC(C)(C(C)C)C(=O)N1 (centres undefined)

melting point	Structure (SMILES)
> 250 °C	CC(C)(C)OC(=O)c1ccc(C#Cc2cnc3nc(NC(=O)C(C)(C)C)nc(O)c3c2)cc1
103 to 106 °C	O=C(c1ccccc1)c1ccc(C(=O)N2Cc3ccccc3Oc3ccccc32)cc1
103 to 105 °C	CC(=NO)C1=CCCN(Cc2ccccc2)C1
157 °C	Nc1nccnc1C(=O)NCCN1CCC(Nc2nc3ccccc3n2Cc2ccc(F)cc2)CC1
> 300 °C	NC(=NO)c1ccc(C(=O)O)cn1
175 to 176 °C	CNC(=O)c1ccnc(NC(=O)N2CCC3(CCc4cc(F)ccc4O3)CC2)c1
164 to 165 °C	CC(=O)c1ccc(NC(=O)NCC2(c3ccccc3)CCCCC2)cc1
99 to 104 °C	Cc1cc(C=O)ccc1C(=O)NCC(F)(F)F
203 to 204 °C	CC(C)(C)c1cc(C(=O)NCCCSc2ccncc2)cc(C(C)(C)C)c1O
164 to 168 °C	O=C(SCC(=O)N1c2ccccc2CCC1C(=O)O)c1ccccc1 (centres undefined)
135 °C	O=C(NC(Cc1ccccc1)C(=O)O)OCc1ccc(CCCc2ccccc2)cc1 (centres undefined)
78 to 80 °C	CCN(CCCCCC(C)O)C(=O)CCC(=O)c1ccc(NS(C)(=O)=O)cc1 (centres undefined)
146 to 147 °C	CCCc1c(OCCCCCC(=O)c2cc(OC)c(OC)cc2F)ccc(C(=O)O)c1O
243 to 246 °C	CS(=O)c1c[nH]c2c(Sc3nc4cc(Cl)ccc4[nH]3)ccc([N+](=O)[O-])c12 (centres undefined)
130 to 143 °C	CCCCc1nc2cc(CO)ccc2n1Cc1ccc(-c2ccccc2C(=O)O)cc1
204 to 206 °C	CSc1nc(-c2ccc(=O)n(C)n2)c(-c2ccccc2)nc1N
45 to 46 °C	CCCCCCCCCCN1CCCN(O)C1=O
> 250 °C	CC(=O)Nc1nc(C(N)=O)cs1
115 °C	O=C(c1ccc(C(F)(F)F)cc1Sc1ccccc1)c1cnoc1C1CC1
88 °C	Cc1nc(C#Cc2ccccc2)n(C)c1-c1nc(C2CC2)no1
136 to 138 °C	CCOC(=O)c1[nH]c(CC2CCC2)nc1C(F)(F)F
62 to 64 °C	CCOC(=O)C(C)(C)OCc1cc2cc(C(F)(F)F)ccc2n1S(=O)(=O)c1ccccc1

melting point	Structure (SMILES)
208 to 210 °C	Cc1ccccc1C(=O)Nc1ccc(C(=O)N2CCCC(n3cccc3)c3ccccc32)cc1 (centres undefined)
129 °C	COC(=O)c1ccc(C(=O)N2CCC(NC3CCOCC3)CC2)cc1
126 to 128 °C	NC(=O)c1nc(C2CC2)nc(NCc2ccco2)c1Cl
62 to 63 °C	CC(C)c1nc(CCN(C)C(=O)N[C@H](C(=O)N[C@@H](Cc2ccccc2)C[C@H](O)[C@H](Cc2ccccc2)NC(=O)OCc2cncs2)C(C)C)cs1
218 to 219 °C	CC(C)(C)c1ccc(C[C@H]2NC(=O)O[C@H]2c2ccc(F)cc2)cc1 (racemic)
116 to 118 °C	CC(C)(O)c1ccc(S(N)(=O)=O)o1
199 to 202 °C	O=C(O)Cc1c(-c2ccco2)nn(-c2ccccc2)c1-c1ccco1
170 to 173 °C	COc1ccc(N2CCN(c3ccc(C)cc3)CC2)c(-c2ccc(N(C)C)cc2)n1
122 °C	CC(C)(Cc1ccc(S(=O)C(F)(F)F)cc1)C(O)c1cncnc1 (centres undefined)
216 to 217 °C	O=C(NCc1ccccc1)c1cn2c(=O)n(Cc3ccc(Cl)c(Cl)c3)c(=O)cc2s1
108 to 110 °C	COCc1ccc(N=C2NCCN2)c(Cl)c1
146 to 149 °C	CC(=O)c1cccc(-c2ccc(O)cc2)c1
121 °C	Cc1cc(OCc2ncc([N+](=O)[O-])n2C)ccc1S(C)=O (centres undefined)
> 350 °C	COC(=O)c1ccc(C(=O)NC2CCC(NC(=O)c3ccc(C(=O)OC)cc3)CC2)cc1 (centres undefined)
97 to 100 °C	CC(C)=CCOc1ccc2cc(C(C)C(=O)O)ccc2c1 (centres undefined)
113 to 114 °C	COC(=O)C(=CN(C)C)N(C)c1cc(-c2ccc(Cl)c(Cl)c2)n(C)n1
174 °C	COc1c(N2CC[C@@H](C3(NC(=O)OC(C)(C)C)CCC3)C2)ccc2c(=O)c(C(=O)O)cn([C@@H]3C[C@@H]3F)c12
228 °C	COc1cc(C(=O)c2nc(NC(=O)C(F)(F)F)c3ccccn23)ccc1[N+](=O)[O-]
73 to 75 °C	CCOC(=O)COc1cc2cc(C3CCCCC3)sc2c(Cl)c1Cl
138 °C	COc1ccccc1OCC(O)CN1CCC(N2CCNC2=O)CC1 (centres undefined)

Structure (SMILES)	melting point
CCCOC12CCC(=O)C3(C)Oc4c(O)ccc5c4C31CCN(CC1CC1)C2C5 (centres undefined)	184 to 186 °C
CN1C(=O)[C@H](NC(=O)CCC2CCCCC2)[N+]([O-])=C(c2ccccc2)c2ccccc21	222 to 224 °C
CCOP(=O)(NC(=O)c1cc(=O)c2ccccc2o1)OCC	182 to 183 °C
O=C(OC1CNC(=N[N+](=O)[O-])NC1)C1(C2CCCCC2)CCCCC1 (centres undefined)	196 to 197 °C
Clc1ccc2c(C3=CCN(CCC4CCc5ccccc54)CC3)c[nH]c2c1 (centres undefined)	181 to 183 °C
